Measured values reported in patent US20040229246A1, “Diagnostic markers for therapeutic treatment” (Can-Fite Biopharam Ltd., priority 2002, published 2004).

What was measured:
[1] = biological target: T1, A3AR (Mus musculus, UniProt Q61618); assay: Western blot analysis of A3AR protein in B16-F10 melanoma cells; assay type: cell-based; conditions: B16-F10 melanoma cells, Western blot
T1 construct: endogenous in cells; host or cells: B16-F10 melanoma cells
T1 sequence (Q61618 1-319): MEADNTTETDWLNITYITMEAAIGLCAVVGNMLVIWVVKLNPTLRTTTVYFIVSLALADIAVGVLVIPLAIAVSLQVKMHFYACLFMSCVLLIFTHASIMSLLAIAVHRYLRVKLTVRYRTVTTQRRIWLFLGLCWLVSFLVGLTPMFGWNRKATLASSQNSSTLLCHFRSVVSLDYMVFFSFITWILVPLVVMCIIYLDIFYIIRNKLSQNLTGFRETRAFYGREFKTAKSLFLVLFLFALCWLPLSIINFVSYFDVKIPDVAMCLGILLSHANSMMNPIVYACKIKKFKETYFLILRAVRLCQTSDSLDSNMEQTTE
Description: (§1) To detect the level of expression of the A3AR proteins Western blot analysis was performed. Cells were incubated in the presence and absence of IB-MECA (10 nM), MRS1523 (10 nM), Forskolin (50 nM), 8 Br cAMP (100 μM), Cycloheximide 20 μg/ml or MG 132 (20 nM) for different time periods at 37° C. Cells were then rinsed with ice-cold PBS and transferred to ice-cold lysis buffer (TNN buffer, 50 mM Tris buffer pH=7.5, 150 mM NaCl, NP 40). In the experiment examining the effect of trypsin on A3AR expression, cells were incubated with 0.5 ml of 0.25% trypsin for 5 minutes. The trypsinized cells were washed again with ice-cold PBS, harvested by centrifugation and subjected to lysis in TNN buffer. Cell debris was removed by centrifugation for 10 minutes, at 7500 xg. The supernatant was utilized for Western Blot analysis. Protein concentrations were determined using the Bio-Rad protein assay dye reagent. Equal amounts of the sample (50 μg) were separated by SDS-PAGE, using 12% polyacrylamide gels. The resolved proteins were then electroblotted onto nitrocellulose membranes (Schleicher & Schuell, Keene, NH, USA). Membranes were blocked with 1% bovine serum albumin and incubated with the desired primary antibody (dilution 1:1000) for 24 hours at 4° C. Blots were then washed and incubated with a secondary antibody for 1 hour at room temperature. Bands were recorded using BCIP/NBT color development kit (Promega, Madison, W1, USA). Data presented in the different figures are representative of at least three different experiments.
Receptor internalization by treating melanoma cells with trypsin, which removes the cell surface receptor, was examined.
Time dependent expression of A3AR in the melanoma cells was examined by Western blot analysis.

[2] = test system: B16-F10 melanoma; assay: B16-F10 melanoma tumor growth in mice; assay type: in vivo; conditions: 100 μg/kg orally once daily, 15 days, p<0.0001
Description: (§2) Melanoma: C57BL/6J, male mice (Harlan Laboratories, Jerusalem, Israel) aged 2 months, weighing an average of 25 g were used. B16-F10 (2.5×105) melanoma cells were subcutaneously (s.c.) injected to the flank of the mice. IB-MECA at a dose of 100 μg/kg body weight was administered orally once daily, starting 24 hours after tumor cells' inoculation. The control group was treated daily, orally, with the vehicle only. Mice were sacrificed after 15 days, tumor lesions were excise and protein was extracted for measurements as described above. The tumor size (width (W) and length (L)) was measured with a caliber and calculated according to the following formula: Tumor Size =(W)2xL/2. Each group contained 15 mice and the study was repeated 3 times.
Consequently, an increase in the total GSK-3β level was noted, thereby leading to a decrease in the level of β-catenin.

[3] = test system: PKA, PKB/Akt, GSK-3β, β-catenin, cyclin D1, c-myc, NF-κB; assay: Western blot of cell growth regulatory proteins in B16-F10 melanoma tumor lesions; assay type: in vivo, mice
Description: as §1, §2

[4] = test system: A3AR, GSK-3β, cyclin D1, c-myc; assay: Western blot of regulatory proteins in HCT-116 tumor lesions excised from mice; assay type: in vivo
Description: as §1
Colon Carcinoma: Nude/BalbC male, 10-week-old mice were used. HCT-116 Human colon carcinoma cells (1.2×10^6 cells in 100 μL PBS) were inoculated subcutaneously to the flank of the mice. Treatment was initiated when tumors reached a size of ˜150 mm^3. Each group contained 10 mice, the control group treated with vehicle only, while the test group was administered daily orally with IB-MECA (10 μg/kg).
After 32 days the mice were sacrificed, tumor lesions were excise and protein was extracted for measurements as described above. Tumor size was evaluated by measuring with a caliber width (W) and length (L) and calculated according to the above formula.

[5] = test system: PKAc, PKB/Akt, β-catenin, c-myc, cyclin D1, NF-κB, GSK-3β; assay: Immunoblot analysis of protein extracts of HCT-116 human colon carcinoma cells; assay type: cell-based; conditions: HCT-116 cells, compared to control
Description: as §1
The effect of IB-MECA on key proteins downstream to A3AR activation in HCT-116 human colon carcinoma cells was also examined in a manner similar to that performed with melanoma cells (see above). FIG. 7 presents Immunoblot analysis of protein extracts derived from colon carcinoma cell, wherein treatment with IB-MECA (right lane) caused down-regulation of PKAc, PKB/Akt, β-catenin, c-myc and cyclin D1 and NF-κB and up-regulation of GSK-3β expression level as compared to control (left lane).

CNC(=O)[C@H]1O[C@@H](n2cnc3c(NCc4cccc(I)c4)ncnc32)[C@H](O)[C@@H]1O [IB-MECA, 1-deoxy-1-[6[[(3-iodophenyl)methyl]amino]-9H-purine-9-yl]-N-methyl-β-D-ribofura-nuronaminde]
time dependent expression of A3AR ([1]; different time points): sinusoidal pattern | A3AR protein level ([1]; versus untreated cells): down-regulated | inhibition of B16-F10 melanoma tumor growth [2]: 76% | NF-κB level [3]: down-regulated | PKA level [3]: decreased | PKB/Akt level [3]: decreased | c-myc level [3]: down-regulated | cyclin D1 level [3]: down-regulated | total GSK-3β level [3]: increase | β-catenin level [3]: decrease | A3AR level [4]: down-regulation | GSK-3β expression level [4]: up-regulation | c-myc level [4]: decrease | cyclin D1 level [4]: decrease | GSK-3β expression level [5]: up-regulation | NF-κB level [5]: down-regulation | PKAc level [5]: down-regulation | PKB/Akt level [5]: down-regulation | c-myc level [5]: down-regulation | cyclin D1 level [5]: down-regulation | β-catenin level [5]: down-regulation
